Literature values, collected in patent US11331392B2, “Biodegradable thermo-responsive polymers and uses thereof” (The Trustees of Columbia University in the City of New York, priority 2014, dated 2022).

System: endothelial and tumor cells

SMILES: Cc1cc(O)ccc1O [methylhydroquinone (MHQ), methylhydroquinone]
- concentration range inhibiting growth of cells in culture: micromolar range
